In patent US7361658B2, “2-acylaminothiazole derivative or salt thereof” (Astellas Pharma Inc., priority 2003, dated 2008):

Experiments:
human c-mpl-Ba/F3 cells [1] = biological target: T1, human c-mpl-Ba/F3 cells (Homo sapiens, UniProt P40238); test: Human c-mpl-Ba/F3 cell growth test; assay type: cell-based; conditions: for Pot: concentration at which cell growth is accelerated by 30% of the maximum cell growth activity of compound A, 24 h culture; for Emax: maximum cell growth activity, maximum of compound A defined as 100%, read-out: Efficacy
T1 construct: expressed in transfected cells; host or cells: Ba/F3 (murine pro-B cells) expressing human c-mpl
T1 sequence (P40238 26-635): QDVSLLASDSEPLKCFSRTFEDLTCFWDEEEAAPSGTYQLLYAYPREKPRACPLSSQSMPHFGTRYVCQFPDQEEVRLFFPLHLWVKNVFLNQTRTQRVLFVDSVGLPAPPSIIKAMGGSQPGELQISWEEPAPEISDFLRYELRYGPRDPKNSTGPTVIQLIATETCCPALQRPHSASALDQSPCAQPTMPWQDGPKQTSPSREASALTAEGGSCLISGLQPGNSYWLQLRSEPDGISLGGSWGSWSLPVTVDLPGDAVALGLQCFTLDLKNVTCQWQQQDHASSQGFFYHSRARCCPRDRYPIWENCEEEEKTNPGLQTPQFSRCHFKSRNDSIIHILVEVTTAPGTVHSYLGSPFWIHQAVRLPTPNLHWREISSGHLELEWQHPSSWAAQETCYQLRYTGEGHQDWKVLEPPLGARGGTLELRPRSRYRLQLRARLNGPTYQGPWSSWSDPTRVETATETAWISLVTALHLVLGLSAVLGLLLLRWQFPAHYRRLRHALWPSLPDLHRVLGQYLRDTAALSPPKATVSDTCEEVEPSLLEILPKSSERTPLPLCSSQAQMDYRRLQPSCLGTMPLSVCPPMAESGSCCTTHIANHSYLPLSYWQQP
Method: (i) Human c-mpl-Ba/F3 Cell Growth Test
In a 96-well microplate, 2×10^5 cells/ml of human c-mpl-Ba/F3 cells were cultured at 37° C. in 10% fetal bovine serum-containing RPMI1640 medium (100 μl/well) containing each test compound at each concentration. After 24 hours from the start-up of culture, 10 μl/well of WST-1/1-methoxy PMS (cell counting kit, Dojin) was added. Immediately after addition and 2 hours after addition, absorbance of A450/A650 was measured with a microplate reader (Model 3350: Bio-Rad), and an increase in absorbance for 2 hours was defined as a growth activity of each test compound.
pot: Concentration of each test compound at which to accelerate cell growth by 30% of a maximum cell growth activity of compound A (compound A and rhTPO in rhTPO)
Efficacy: Maximum cell growth activity of each test compound when a maximum cell growth activity of compound A (compound A and rhTPO in rhTPO) is defined as 100%.
Compound A refers to a compound in Example 9 of the foregoing Patent Document 10.

Human CD34+ cells = test: Test for measuring a function of accelerating formation of megakaryocytic colonies; assay type: cell-based; conditions: megakaryocytic colony formation, 10 to 14 days, MegaCult-C
Method: (ii) Test for Measuring a Function of Accelerating Formation of Megakaryocytic Colonies
Human CD34^+ cells were cultured in a 2-well chamber slide in the presence of a test product at 37° C. for from 10 to 14 days using MegaCult™-C (StemCell Technologies). After dehydration and fixation were conducted according to the attached manual, dying was conducted with an anti-glycoprotein IIb/IIIa antibody. The number of colonies for 1 well was counted by a microscope on condition that a population of 3 or more dyed megakaryocytes was one colony. An EC30 value of each test compound was calculated from a dose curve.

human c-mpl-Ba/F3 cells [2] = biological target: T1, human c-mpl-Ba/F3 cells; test: Mouse oral administration test: human c-mpl-Ba/F3 cell growth activity of a plasma after oral administration; assay type: in vivo; conditions: male ICR mouse, plasma 2 h after administration, maximum activity of each test compound = 100%
Method: (iii) Mouse Oral Administration Test
3 mg/kg or 10 mg/kg (100 mg/kg in Comparative Compounds 1 to 3) of a test compound dissolved or suspended in a 0.5% methylcellulose aqueous solution was orally administered to a male ICR mouse. After 2 hours from administration, a blood was sampled from the subabdominal large vein using 1/10-volume 3.8% sodium citrate as an anticoagulant. Centrifugation was performed at 12,000 rpm for 3 minutes. The resulting plasma was heated at 56° C. for 30 minutes, and added to a system of the human c-mpl-Ba/F3 cell growth test described in (i) such that the final concentration of the plasma reached 0.3%, 1% or 3% (10% in Comparative Compounds 1 to 3) to measure a cell growth activity. The cell growth activity (%) of each plasma was measured when the maximum cell growth activity of each test compound was defined as 100%.

Row | Structure (SMILES) | Pot (human c-mpl-Ba/F3 cells [1]) [nM] | Emax (human c-mpl-Ba/F3 cells [1]) [%] | Cell growth activity (human c-mpl-Ba/F3 cells [2]; 3 mg/kg p.o., dilution rate 3%) | Cell growth activity (human c-mpl-Ba/F3 cells [2]; 3 mg/kg p.o., dilution rate 1%) [%] | Cell growth activity (human c-mpl-Ba/F3 cells [2]; 10 mg/kg p.o., dilution rate 3%) [%] | EC30 value (Human CD34+ cells) [nM]
1 | CCCCN(C)Cc1sc(NC(=O)c2cnc(N3CCC(C(=O)O)CC3)c(Cl)c2)nc1-c1cc(Cl)cs1 [Example 71, 1-(5-{[5-{[butyl(methyl)amino]methyl}-4-(4-chlorothiophen-2-yl)thiazol-2-yl]carbamoyl}-3-chloro-2-pyridyl)piperidin-4-carboxylic acid] | 2.0 | 110 | ≧80% |  |  | 20
2 | CN(Cc1sc(NC(=O)c2cnc(N3CCC(C(=O)O)CC3)c(Cl)c2)nc1-c1cc(Cl)cs1)C1CCC1 [Example 100, 1-{3-chloro-5-[(4-(4-chlorothiophen-2-yl)-5-{[cyclobutyl(methyl)amino]methyl}thiazol-2-yl)carbamoyl]-2-pyridyl}piperidine-4-carboxylic acid] | 2.9 | 117 | ≧80% |  |  | 34
3 | CC(C)N(C)Cc1sc(NC(=O)c2cnc(N3CCC(C(=O)O)CC3)c(Cl)c2)nc1-c1cc(Cl)cs1 [Example 104, 1-{3-chloro-5-[(4-(4-chlorothiophen-2-yl)-5-{[isopropyl(methyl)amino]methyl}thiazol-2-yl)carbamoyl]-2-pyridyl}piperidine-4-carboxylic acid] | 3.5 | 105 |  | 63 |  | 36

Further lines, with some results ahead:

Row | Pot (human c-mpl-Ba/F3 cells [1]) [nM] | Emax (human c-mpl-Ba/F3 cells [1]) [%] | Cell growth activity (human c-mpl-Ba/F3 cells [2]; 3 mg/kg p.o., dilution rate 3%) | Cell growth activity (human c-mpl-Ba/F3 cells [2]; 3 mg/kg p.o., dilution rate 1%) [%] | Cell growth activity (human c-mpl-Ba/F3 cells [2]; 10 mg/kg p.o., dilution rate 3%) [%] | Structure (SMILES) | EC30 value (Human CD34+ cells) [nM]
4 | 2.1 | 112 |  | 63 |  | C[C@H]1CCCN1Cc1sc(NC(=O)c2cnc(N3CCC(C(=O)O)CC3)c(Cl)c2)nc1-c1cc(Cl)cs1 [Example 106, 1-{3-chloro-5-[(4-(4-chlorothiophen-2-yl)-5-{[(2S)-2-methylpyrrolidin-1-yl]methyl}thiazol-2-yl)carbamoyl]-2-pyridyl}piperidine-4-carboxylic acid] | 23
5 | 6.1 | 99 |  |  | 29 | CCCCN(C)Cc1sc(NC(=O)c2cnc(N3CCNC(=O)C3)c(Cl)c2)nc1-c1cc(Cl)cs1 [Example 153, N-[5-{[butyl(methyl)amino]methyl}-4-(4-chlorothiophen-2-yl)thiazol-2-yl]-5-chloro-6-(3-oxopiperazin-1-yl)nicotinamide] | 
6 | 3.2 | 98 |  |  |  | C[C@@H]1CCCN1Cc1sc(NC(=O)c2cnc(N3CCC(C(=O)O)CC3)c(F)c2)nc1-c1cc(Cl)cs1 [Example 315, 1-{5-[(4-(4-chlorothiophen-2-yl)-5-{[(2R)-2-methylpyrrolidin-1-yl]methyl}thiazol-2-yl)carbamoyl]-3-fluoro-2-pyridyl}piperidin-4-carboxylic acid] | 45
